# Columns and labels:
# Format in all cases: cell-based, human
# [1] = tested on: SW1990 pancreatic cancer cells; assay: MTS assay of SW1990 cultures, single 50 μM dose; details: SW1990, 50 μM
# Experimental: SW1990 pancreatic cancer cells […] were cultured in complete DMEM media containing 10% fetal bovine serum (FBS) and 1% penicillin-streptomycin, and 1% L-glutamine. BxPc-3 pancreatic cancer cells were cultured in complete RPMI media containing 10% fetal bovine serum (FBS), and 1% penicillin-streptomycin, 1% HEPES buffer, 1% sodium pyruvate and 1% L-glutamine. HPDE6-C7 cells were cultured in serum-free keratinocyte SFM media. All cells were maintained at 37° C. in a humidified incubator with 5% CO2. The cells were treated with a single 50 μM dose of vehicle (ethanol extracted olive oil), T3 alpha (alpha tocotrienol), T3 beta (beta tocotrienol), T3 gamma (gamma tocotrienol), T3 delta (delta tocotrienol), T alpha (alpha tocopherol), T beta (beta tocopherol), TS (tocopherol succinate), GG (geranylgeraniol), SA (succinic acid). A control culture (i.e., only vehicle with no treatment) was grown alongside the treatments for comparison. Cell viability was measured using MTS assay at preselect times of 24, 48, or 72 hours after treatment.
# MiaPaCa-2 cells = assay: MTS assay of MiaPaCa2 cultures, single 50 μM dose; details: MiaPaCa2, 50 μM
# Experimental: MiaPaCa-2 cells were cultured in complete DMEM media containing 10% fetal bovine serum (FBS) and 1% penicillin-streptomycin, and 1% L-glutamine. BxPc-3 pancreatic cancer cells were cultured in complete RPMI media containing 10% fetal bovine serum (FBS), and 1% penicillin-streptomycin, 1% HEPES buffer, 1% sodium pyruvate and 1% L-glutamine HPDE6-C7 cells were cultured in serum-free keratinocyte SFM media. All cells were maintained at 37° C. in a humidified incubator with 5% CO2. The cells were treated with a single 50 μM dose of vehicle (vehicle only, may be a solvent), T3 alpha (alpha tocotrienol), T3 beta (beta tocotrienol), T3 gamma (gamma tocotrienol), T3 delta (delta tocotrienol), T alpha (alpha tocopherol), T beta (beta tocopherol), TS (tocopherol succinate), GG (geranylgeraniol), SA (succinic acid). A control (no treatment) culture was grown alongside the treatments for comparison. […]
# BXPC3 cells = assay: MTT assay of BXPC3 cultures, single 50 μM dose; set-up: MTT assay result, run 1 / MTT assay result, run 2 / MTT assay result, run 3 / MTT assay result, run 4 / MTT assay result, run 5 / MTT assay result, run 6 / MTT assay result, run 7 / MTT assay result, av (average) / MTT assay result, av-blank / MTT assay result, av: unit not given here; details: BXPC3, 50 μM; for MTT assay result, av-blank: average minus blank
# Experimental: BXPC3 cells were cultured in complete […] media containing 10% fetal bovine serum (FBS) and 1% penicillin-streptomycin, and 1% L-glutamine. BxPc-3 pancreatic cancer cells were cultured in complete RPMI media containing 10% fetal bovine serum (FBS), and 1% penicillin-streptomycin, 1% HEPES buffer, 1% sodium pyruvate and 1% L-glutamine HPDE6-C7 cells were cultured in serum-free keratinocyte SFM media. All cells were maintained at 37° C. in a humidified incubator with 5% CO2. The cells were treated with a single 50 μM dose of vehicle (vehicle only, may be a solvent), T3 alpha (alpha tocotrienol), T3 beta (beta tocotrienol), T3 gamma (gamma tocotrienol), T3 delta (delta tocotrienol), T alpha (alpha tocopherol), T beta (beta tocopherol), TS (tocopherol succinate), GG (geranylgeraniol), SA (succinic acid). A control (no treatment) culture was grown alongside the treatments for comparison. Cell viability was measured using MTT assay at preselect times of 48 or 120 hours after treatment.
compound,measurement,setting,value
"CC(C)=CCC/C(C)=C/CC/C(C)=C/CC/C(C)=C/CO [GG, geranylgeraniol]",rel amnt (relative value set to the control),[1]; 24 hours,92
same,"MTS assay result, run 1",[1]; 24 hours,0.158
same,"MTS assay result, run 2",[1]; 24 hours,0.133
same,"MTS assay result, run 3",[1]; 24 hours,0.133
same,"MTS assay result, run 4",[1]; 24 hours,0.137
same,"MTS assay result, run 5",[1]; 24 hours,0.131
same,"MTS assay result, run 6",[1]; 24 hours,0.14
same,"MTS assay result, run 7",[1]; 24 hours,0.132
same,"MTS assay result, run 8",[1]; 24 hours,0.121
same,"MTS assay result, run 9",[1]; 24 hours,0.136
same,rel amnt (relative value set to the control),[1]; 48 hours,83
same,"MTS assay result, run 1",[1]; 48 hours,0.078
same,"MTS assay result, run 2",[1]; 48 hours,0.129
same,"MTS assay result, run 3",[1]; 48 hours,0.13
same,"MTS assay result, run 4",[1]; 48 hours,0.128
same,"MTS assay result, run 5",[1]; 48 hours,0.133
same,"MTS assay result, run 6",[1]; 48 hours,0.118
same,"MTS assay result, run 7",[1]; 48 hours,0.14
same,"MTS assay result, run 8",[1]; 48 hours,0.144
same,"MTS assay result, run 9",[1]; 48 hours,0.125
same,rel amnt (relative value set to the control),[1]; 72 hours,158
same,"MTS assay result, run 1",[1]; 72 hours,0.784
same,"MTS assay result, run 2",[1]; 72 hours,0.713
same,"MTS assay result, run 3",[1]; 72 hours,0.76
same,"MTS assay result, run 4",[1]; 72 hours,0.734
same,"MTS assay result, run 5",[1]; 72 hours,0.682
same,"MTS assay result, run 6",[1]; 72 hours,0.665
same,"MTS assay result, run 7",[1]; 72 hours,0.65
same,"MTS assay result, run 8",[1]; 72 hours,0.627
same,"MTS assay result, run 9",[1]; 72 hours,0.702
same,rel amt (relative value set to the control),MiaPaCa-2 cells; 24 hours,82
same,"MTS assay result, run 1",MiaPaCa-2 cells; 24 hours,0.186
same,"MTS assay result, run 2",MiaPaCa-2 cells; 24 hours,0.166
same,"MTS assay result, run 3",MiaPaCa-2 cells; 24 hours,0.175
same,"MTS assay result, run 4",MiaPaCa-2 cells; 24 hours,0.18
same,"MTS assay result, run 5",MiaPaCa-2 cells; 24 hours,0.196
same,"MTS assay result, run 6",MiaPaCa-2 cells; 24 hours,0.199
same,"MTS assay result, run 7",MiaPaCa-2 cells; 24 hours,0.184
same,"MTS assay result, run 8",MiaPaCa-2 cells; 24 hours,0.178
same,"MTS assay result, run 9",MiaPaCa-2 cells; 24 hours,0.183
same,rel amt (relative value set to the control),MiaPaCa-2 cells; 48 hours,53
same,"MTS assay result, run 1",MiaPaCa-2 cells; 48 hours,0.154
same,"MTS assay result, run 2",MiaPaCa-2 cells; 48 hours,0.194
same,"MTS assay result, run 3",MiaPaCa-2 cells; 48 hours,0.181
same,"MTS assay result, run 4",MiaPaCa-2 cells; 48 hours,0.198
same,"MTS assay result, run 5",MiaPaCa-2 cells; 48 hours,0.236
same,"MTS assay result, run 6",MiaPaCa-2 cells; 48 hours,0.198
same,"MTS assay result, run 7",MiaPaCa-2 cells; 48 hours,0.193
same,"MTS assay result, run 8",MiaPaCa-2 cells; 48 hours,0.192
same,"MTS assay result, run 9",MiaPaCa-2 cells; 48 hours,0.193
same,rel amt (relative value set to the control),MiaPaCa-2 cells; 72 hours,158
same,"MTS assay result, run 1",MiaPaCa-2 cells; 72 hours,0.784
same,"MTS assay result, run 2",MiaPaCa-2 cells; 72 hours,0.713
same,"MTS assay result, run 3",MiaPaCa-2 cells; 72 hours,0.757
same,"MTS assay result, run 4",MiaPaCa-2 cells; 72 hours,0.734
same,"MTS assay result, run 5",MiaPaCa-2 cells; 72 hours,0.682
same,"MTS assay result, run 6",MiaPaCa-2 cells; 72 hours,0.665
same,"MTS assay result, run 7",MiaPaCa-2 cells; 72 hours,0.65
same,"MTS assay result, run 8",MiaPaCa-2 cells; 72 hours,0.627
same,"MTS assay result, run 9",MiaPaCa-2 cells; 72 hours,0.702
same,rel amt (relative value set to the control),BXPC3 cells; 48 hours,108
same,"MTT assay result, av-blank",BXPC3 cells; 48 hours,0.246
same,"MTT assay result, av (average)","BXPC3 cells; 48 hours, average of 7 runs",0.295
same,"MTT assay result, run 1",BXPC3 cells; 48 hours,0.308
same,"MTT assay result, run 2",BXPC3 cells; 48 hours,0.272
same,"MTT assay result, run 3",BXPC3 cells; 48 hours,0.299
same,"MTT assay result, run 4",BXPC3 cells; 48 hours,0.291
same,"MTT assay result, run 5",BXPC3 cells; 48 hours,0.299
same,"MTT assay result, run 6",BXPC3 cells; 48 hours,0.3
same,"MTT assay result, run 7",BXPC3 cells; 48 hours,0.294
same,rel amt (relative value set to the control),BXPC3 cells; 120 hours (5 days),106
same,"MTT assay result, av-blank",BXPC3 cells; 120 hours (5 days),0.610
same,"MTT assay result, av","BXPC3 cells; 120 hours (5 days), average of 7 runs",0.665
same,"MTT assay result, run 1",BXPC3 cells; 120 hours (5 days),0.621
same,"MTT assay result, run 2",BXPC3 cells; 120 hours (5 days),0.655
same,"MTT assay result, run 3",BXPC3 cells; 120 hours (5 days),0.672
same,"MTT assay result, run 4",BXPC3 cells; 120 hours (5 days),0.663
same,"MTT assay result, run 5",BXPC3 cells; 120 hours (5 days),0.657
same,"MTT assay result, run 6",BXPC3 cells; 120 hours (5 days),0.724
same,"MTT assay result, run 7",BXPC3 cells; 120 hours (5 days),0.66

# Source: patent US8846653B2, “Delta-tocotrienol treatment and prevention of pancreatic cancer” (University of South Florida, priority 2006, dated 2014)
